Structures can show the parent of a compound that is named as a salt.
What follows are compounds tested against T1, BACE1 (Homo sapiens, UniProt P56817) (assay: Cellular Aβ-lowering assay (Aβ40 ELISA)). Conditions: HEK293 cells stably expressing human APP695; Aβ40 in culture supernatant; read-out: BACE1 cell act. Aβ40 IC50.
T1 construct: Human HEK293 cells which are stably transfected with a vector expressing a cDNA of the human APP wt gene (APP695); endogenous in cells; host or cells: HEK293 stably transfected with human APP695 wt
Type: cell-based
Experimental: Cellular Aβ-Lowering Assay:
Human HEK293 cells which are stably transfected with a vector expressing a cDNA of the human APP wt gene (APP695) were used to assess the potency of the compounds in a cellular assay. The cells were seeded in 96-well microtiter plates in cell culture medium (Iscove, plus 10% (v/v) fetal bovine serum, glutamine, penicillin/streptomycin) to about 80% confluence and the compounds were added at a 10× concentration in 1/10 volume of medium without FCS containing 8% DMSO (final concentration of DMSO was kept at 0.8% v/v). After 18-20 hrs incubation at 37° C. and 5% CO2 in a humidified incubator the culture supernatant was harvested for the determination of Aβ40 concentrations. […] Subsequently the wells of the microtiter plate were washed extensively with Tris-buffered saline containing 0.05% Tween 20 and the assay was developed with tetramethylbenzidine/H2O2 in citric acid buffer. After stopping the reaction with one volume 1 NH2SO4 the reaction was measured in an ELISA reader at 450 nm wavelength. The concentrations of Aβ in the culture supernatants were calculated from a standard curve obtained with known amounts of pure Aβ peptide.

T1 sequence (P56817 46-501): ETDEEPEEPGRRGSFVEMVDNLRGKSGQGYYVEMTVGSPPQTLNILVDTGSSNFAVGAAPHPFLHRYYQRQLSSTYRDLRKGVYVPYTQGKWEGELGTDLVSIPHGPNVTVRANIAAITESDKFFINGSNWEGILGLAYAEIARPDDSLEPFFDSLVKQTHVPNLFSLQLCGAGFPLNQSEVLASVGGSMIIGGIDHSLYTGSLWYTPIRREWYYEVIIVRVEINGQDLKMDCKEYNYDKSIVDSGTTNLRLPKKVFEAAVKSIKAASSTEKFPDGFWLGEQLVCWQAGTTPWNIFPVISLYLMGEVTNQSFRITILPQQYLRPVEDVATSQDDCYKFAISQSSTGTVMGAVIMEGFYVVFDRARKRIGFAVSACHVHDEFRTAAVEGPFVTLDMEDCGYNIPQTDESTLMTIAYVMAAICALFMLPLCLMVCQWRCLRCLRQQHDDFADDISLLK

| SMILES | IC50 |
| --- | --- |
| CC1(C)OC(N)=N[C@](C)(c2cc(NC(=O)c3ccc(OCC4CC4)nc3)ccc2F)C1(F)F [Example 31, N-[3-((R)-2-Amino-5,5-difluoro-4,6,6-trimethyl-5,6-dihydro-4H-[1,3]oxazin-4-yl)-4-fluoro-phenyl]-6-cyclopropylmethoxy-nicotinamide] | 2810 nM |
| CC1(C)OC(N)=N[C@](C)(c2cc(NC(=O)c3cnc(OCC4CC4)cn3)ccc2F)C1(F)F [Example 36, 5-Cyclopropylmethoxy-pyrazine-2-carboxylic acid [3-((R)-2-amino-5,5-difluoro-4,6,6-trimethyl-5,6-dihydro-4H-[1,3]oxazin-4-yl)-4-fluoro-phenyl]-amide] | 2460 nM |
| C[C@]1(c2cc(NC(=O)c3ccc(C#CC4CC4)cn3)ccc2F)N=C(N)OCC1(F)F [Example 40, 5-Cyclopropylethynyl-pyridine-2-carboxylic acid [3-((R)-2-amino-5,5-difluoro-4-methyl-5,6-dihydro-4H-[1,3]oxazin-4-yl)-4-fluoro-phenyl]-amide] | 460 nM |
| C[C@]1(c2cc(NC(=O)c3cocn3)ccc2F)N=C(N)OCC1(F)F [Example 55, Oxazole-4-carboxylic acid [3-((R)-2-amino-5,5-difluoro-4-methyl-5,6-dihydro-4H-[1,3]oxazin-4-yl)-4-fluoro-phenyl]-amide] | 495 nM |
| Cc1conc1C(=O)Nc1ccc(F)c([C@@]2(C)N=C(N)OCC2(F)F)c1 [Example 61, 4-Methyl-isoxazole-3-carboxylic acid [3-((R)-2-amino-5,5-difluoro-4-methyl-5,6-dihydro-4H-[1,3]oxazin-4-yl)-4-fluoro-phenyl]-amide] | 305 nM |
| CCc1ocnc1C(=O)Nc1ccc(F)c([C@@]2(C)N=C(N)OCC2(F)F)c1 [Example 69, formate] | 1480 nM |
| C[C@]1(c2cc(NC(=O)c3ccc(C(N)=O)cn3)ccc2F)N=C(N)OCC1(F)F [Example 72] | 230 nM |
| C[C@]1(c2cc(NC(=O)c3nn(CC(F)(F)F)cc3Cl)ccc2F)N=C(N)OCC1(F)F [Example 78, 4-Chloro-1-(2,2,2-trifluoro-ethyl)-1H-pyrazole-3-carboxylic acid [3-((R)-2-amino-5,5-difluoro-4-methyl-5,6-dihydro-4H-[1,3]oxazin-4-yl)-4-fluoro-phenyl]-amide] | 1770 nM |
| C[C@]1(c2cc(NC(=O)c3ccc([N+](=O)[O-])o3)ccc2F)N=C(N)OCC1(F)F [Example 81, 5-Nitro-furan-2-carboxylic acid [3-((R)-2-amino-5,5-difluoro-4-methyl-5,6-dihydro-4H-[1,3]oxazin-4-yl)-4-fluoro-phenyl]-amide] | 1900 nM |
| C[C@]1(c2cc(NC(=O)/C=C/c3ccco3)ccc2F)N=C(N)OCC1(F)F [Example 82, (E)-N-[3-((R)-2-Amino-5,5-difluoro-4-methyl-5,6-dihydro-4H-[1,3]oxazin-4-yl)-4-fluoro-phenyl]-3-furan-2-yl-acrylamide] | 910 nM |
| C[C@]1(c2cc(NC(=O)c3ccc(C#N)c[n+]3[O-])ccc2F)N=C(N)OCC1(F)F [Example 83, 5-Cyano-1-oxy-pyridine-2-carboxylic acid [3-((R)-2-amino-5,5-difluoro-4-methyl-5,6-dihydro-4H-[1,3]oxazin-4-yl)-4-fluoro-phenyl]-amide] | 310 nM |

More lines, in order of falling IC50, values ahead:

| IC50 | SMILES |
| --- | --- |
| 230 nM | CC1(C)OC(N)=N[C@](C)(c2cc(NC(=O)c3ccc(OCC(F)(F)C(F)F)cn3)ccc2F)C1(F)F [Example 30, 5-(2,2,3,3-Tetrafluoro-propoxy)-pyridine-2-carboxylic acid [3-((R)-2-amino-5,5-difluoro-4,6,6-trimethyl-5,6-dihydro-4H-[1,3]oxazin-4-yl)-4-fluoro-phenyl]-amide] |
| 200 nM | CC1(C)OC(N)=N[C@](C)(c2cc(NC(=O)c3ccc(OCC(F)F)cn3)ccc2F)C1(F)F [Example 28, 5-(2,2-Difluoro-ethoxy)-pyridine-2-carboxylic acid [3-((R)-2-amino-5,5-difluoro-4,6,6-trimethyl-5,6-dihydro-4H-[1,3]oxazin-4-yl)-4-fluoro-phenyl]-amide] |
| 180 nM | CC(=O)Nc1ccc(F)c([C@@]2(C)N=C(N)OCC2(F)F)c1 [Example 73, N-[3-((R)-2-Amino-5,5-difluoro-4-methyl-5,6-dihydro-4H-[1,3]oxazin-4-yl)-4-fluoro-phenyl]-acetamide] |
| 140 nM | CCc1nc(C(=O)Nc2ccc(F)c([C@@]3(C)N=C(N)OCC3(F)F)c2)co1 [Example 56, 2-Ethyl-oxazole-4-carboxylic acid [3-((R)-2-amino-5,5-difluoro-4-methyl-5,6-dihydro-4H-[1,3]oxazin-4-yl)-4-fluoro-phenyl]-amide] |
| 100 nM | CCn1cc(Cl)c(C(=O)Nc2ccc(F)c([C@@]3(C)N=C(N)OCC3(F)F)c2)n1 [Example 77, 4-Chloro-1-ethyl-1H-pyrazole-3-carboxylic acid [3-((R)-2-amino-5,5-difluoro-4-methyl-5,6-dihydro-4H-[1,3]oxazin-4-yl)-4-fluoro-phenyl]-amide] |
| 73 nM | C[C@]1(c2cc(NC(=O)c3coc(CCl)n3)ccc2F)N=C(N)OCC1(F)F [Example 57, 2-Chloromethyl-oxazole-4-carboxylic acid [3-((R)-2-amino-5,5-difluoro-4-methyl-5,6-dihydro-4H-[1,3]oxazin-4-yl)-4-fluoro-phenyl]-amide] |
| 70 nM | C[C@]1(c2cc(NC(=O)c3cnc(OCC4CC4)cn3)ccc2F)N=C(N)OCC1(F)F [Example 46, 5-Cyclopropylmethoxy-pyrazine-2-carboxylic acid [3-((R)-2-amino-5,5-difluoro-4-methyl-5,6-dihydro-4H-[1,3]oxazin-4-yl)-4-fluoro-phenyl]-amide] |
| 6 nM | CC1(C)OC(N)=N[C@](C)(c2cc(NC(=O)c3ccn(C(F)F)n3)ccc2F)C1(F)F [Example 38, 1-Difluoromethyl-1H-pyrazole-3-carboxylic acid [3-((R)-2-amino-5,5-difluoro-4,6,6-trimethyl-5,6-dihydro-4H-[1,3]oxazin-4-yl)-4-fluoro-phenyl]-amide] |
| 3 nM | C[C@]1(c2cc(NC(=O)c3coc(CF)n3)ccc2F)N=C(N)OCC1(F)F [Example 79, 2-Fluoromethyl-oxazole-4-carboxylic acid [3-((R)-2-amino-5,5-difluoro-4-methyl-5,6-dihydro-4H-[1,3]oxazin-4-yl)-4-fluoro-phenyl]-amide formate] |

Source: patent US8389513B2, “2-amino-5,5-difluoro-5,6-dihydro-4H-[1,3]oxazin-4-yl)-phenyl]-amides” (Hoffmann-La Roche Inc., priority 2009, dated 2013)
